Assay [1] concerns the target T1, PDK1 kinase (Homo sapiens, UniProt O15530).
T1 sequence (O15530 1-556): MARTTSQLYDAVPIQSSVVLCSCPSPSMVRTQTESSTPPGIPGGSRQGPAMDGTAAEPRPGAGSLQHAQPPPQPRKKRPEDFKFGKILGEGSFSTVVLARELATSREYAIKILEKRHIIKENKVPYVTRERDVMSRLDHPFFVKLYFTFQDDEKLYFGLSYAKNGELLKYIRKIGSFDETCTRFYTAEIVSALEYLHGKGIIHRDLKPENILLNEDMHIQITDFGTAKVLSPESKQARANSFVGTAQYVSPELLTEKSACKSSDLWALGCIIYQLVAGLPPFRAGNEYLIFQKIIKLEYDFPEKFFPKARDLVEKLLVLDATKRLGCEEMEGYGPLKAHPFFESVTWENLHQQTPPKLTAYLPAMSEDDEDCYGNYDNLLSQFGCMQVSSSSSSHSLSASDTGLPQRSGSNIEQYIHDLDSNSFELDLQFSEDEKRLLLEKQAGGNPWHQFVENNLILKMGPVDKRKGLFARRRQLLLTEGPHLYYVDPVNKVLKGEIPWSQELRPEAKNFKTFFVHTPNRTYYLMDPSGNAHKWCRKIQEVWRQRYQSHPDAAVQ
The assay is described as follows: PDK1 Kinase Alpha Screen Assay. The assay is classed as biochemical. Conditions: PDK1 Kinase Alpha Screen Assay; read-out: PDK1 IC50. The procedure, abridged: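 Detection used AlphaScreen: streptavidin donor and protein A acceptor beads (25 μg/ml each) bridged by a phospho-(Ser/Thr) PKA substrate antibody binding phosphorylated peptide. Reaction: biotin-PDK1-4 peptide (50 nM), ATP (10 uM), PDK1 in pH 7.5 Tris/MgCl2/DTT buffer, 3-18 hours, EDTA-stopped.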

The subject of assay [2] is A2780 cells. The assay is described as follows: Cell Proliferation Assay (Cell Titer Glo), A2780. The assay is classed as cell-based. Conditions: Homo sapiens; cell proliferation, A2780 cells; read-out: CPEC50 A2780. The procedure, abridged:
(§1)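 Following a 3-day compound exposure (37° C., 5% CO2) of A2780 or PC3MM cells plated at 1000 per well, viability was measured by Cell Titer Glo luminescence in fresh medium, read 10 min after reagent addition.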
Background: In ATP-based viability assays light output follows the ATP content of the culture.

The test system of assay [3] is PC3MM cells. Briefly: Cell Proliferation Assay (Cell Titer Glo), PC3MM. The assay is classed as cell-based. The note with it: cell proliferation, PC3MM cells; read-out: CPEC50 PC3MM. Summed up: as §1

Where only a bound is given, the exact number is not on record here.

By IC50 is commonly meant the point on the concentration scale where inhibition reaches its midpoint.

As for `CC(C)NS(=O)(=O)c1cccc(Nc2ncc3cccc(OC4CCNCC4)c3n2)c1` [Compound 776, N-isopropyl-3-(8-(piperidin-4-yloxy)quinazolin-2-ylamino)benzenesulfonamide], the IC50 in assay [1] was less than 5 µM. The EC50 in assay [2] and in assay [3] was less than 5 µM in each case.
In the case of `COCCNS(=O)(=O)c1cccc(Nc2ncc3cccc(OC4CCNCC4)c3n2)c1` [Compound 777, N-(2-methoxyethyl)-3-(8-(piperidin-4-yloxy)quinazolin-2-ylamino)benzenesulfonamide], the IC50 in assay [1] was less than 5 µM. For the same molecule, the EC50 was 5 to 10 µM in assay [2] and less than 5 µM in assay [3].
With `CN1CCN(S(=O)(=O)c2ccc(Nc3ncc4cccc(OC5CCNCC5)c4n3)cc2)CC1` [Compound 778, N-(4-(4-methylpiperazin-1-ylsulfonyl)phenyl)-8-(piperidin-4-yloxy)quinazolin-2-amine], the IC50 in assay [1] was less than 5 µM. Moreover, the EC50 in assay [2] and in assay [3] was less than 5 µM throughout.
`NC(=O)c1cccc(-c2ccc3cnc(Nc4ccc(S(N)(=O)=O)cc4)nc3c2)c1` [Compound 782]: the half-maximal inhibitory concentration (IC50) in assay [1] was less than 5 µM. For the same molecule, the figures for the EC50 in assay [2] and in assay [3] were 5 to 10 µM and less than 5 µM, respectively.
Consider `NC(=O)c1ccc(-c2ccc3cnc(Nc4ccc(S(N)(=O)=O)cc4)nc3c2)cc1` [Compound 783, 4-(2-(4-sulfamoylphenylamino)quinazolin-7-yl)benzamide], for which, in assay [1], the 50% inhibitory concentration (IC50) is less than 5 µM. Besides, the values for the EC50 in assay [2] and in assay [3] were 5 to 10 µM and less than 5 µM, respectively.
Turning to `NS(=O)(=O)c1ccc(Nc2ncc3ccc(-c4cccc(S(N)(=O)=O)c4)cc3n2)cc1` [Compound 786, 3-(2-(4-sulfamoylphenylamino)quinazolin-7-yl)benzenesulfonamide], in assay [1], the concentration for half-maximal inhibition (IC50) is less than 5 µM. The results for the EC50 in assay [2] and in assay [3] were 5 to 10 µM and less than 5 µM, respectively.
`Nc1ccc(-c2ccc3cnc(Nc4ccc(S(N)(=O)=O)cc4)nc3c2)cn1` [Compound 789, 4-(7-(6-aminopyridin-3-yl)quinazolin-2-ylamino)benzenesulfonamide]: in assay [1], the concentration for half-maximal inhibition (IC50) was less than 5 µM. Further, the EC50 in assay [2] and in assay [3] was less than 5 µM each time.
Regarding `NC(=O)c1ccc(-c2ccc3cnc(Nc4ccc(S(N)(=O)=O)cc4)nc3c2)cn1` [Compound 790, 5-(2-(4-sulfamoylphenylamino)quinazolin-7-yl)picolinamide], the IC50 in assay [1] was less than 5 µM. For the same molecule, the figures for the EC50 in assay [2] and in assay [3] were 5 to 10 µM and less than 5 µM, respectively.
In the case of `NS(=O)(=O)c1ccc(Nc2ncc3ccc(-c4cn[nH]c4)cc3n2)cc1` [Compound 792, 4-(7-(1H-pyrazol-4-yl)quinazolin-2-ylamino)benzenesulfonamide], the 50% inhibitory concentration (IC50) in assay [1] is less than 5 µM. Moreover, the EC50 in assay [2] and in assay [3] was less than 5 µM in each case.
`NS(=O)(=O)c1ccc(Nc2ncc3ccc(-c4cccnc4)cc3n2)cc1` [Compound 793, 4-(7-(pyridin-3-yl)quinazolin-2-ylamlno)benzenesulfonamide]: the half-inhibitory concentration (IC50) in assay [1] is less than 5 µM. Moreover, the EC50 in assay [2] and in assay [3] was less than 5 µM throughout.
`CNC(=O)c1ccc(Nc2ncc3cccc(OC4CCN(C(C)C)CC4)c3n2)cc1` [Compound 796, 4-(8-(1-isopropylpiperidin-4-yloxy)quinazolin-2-ylamino)-N-methylbenzamide]: the IC50 in assay [1] is less than 5 µM. The EC50 in assay [2] and in assay [3] was less than 5 µM throughout.
As to `CN1CCN(C(=O)c2ccc3cnc(Nc4ccc(S(N)(=O)=O)cc4)nc3c2)CC1` [Compound 798, 4-(7-(4-methylpiperazine-1-carbonyl)quinazolin-2-ylamino)benzenesulfonamide], the concentration for half-maximal inhibition (IC50) in assay [1] lay in the range of 10 to 25 µM. Further, the EC50 in assay [2] was 5 to 10 µM; in assay [3] it was 10 to 25 µM.
In the case of `COc1cncc(-c2ccc3cnc(Nc4ccc(S(N)(=O)=O)cc4)nc3c2)c1` [Compound 801, 4-(7-(5-methoxypyridin-3-yl)quinazolin-2-ylamino)benzenesulfonamide], the IC50 in assay [1] was less than 5 µM. In addition, the EC50 in assay [2] and in assay [3] was less than 5 µM each time.
As for `NS(=O)(=O)c1ccc(Nc2ncc3ccc(-c4ccc(C(=O)N5CCOCC5)cc4)cc3n2)cc1` [Compound 802, 4-(7-(4-(morpholine-4-carbonyl)phenyl)quinazolin-2-ylamino)benzenesulfonamide], in assay [1], the IC50 was less than 5 µM. The results for the EC50 in assay [2] and in assay [3] were 5 to 10 µM and less than 5 µM, respectively.
Take `NS(=O)(=O)c1ccc(Nc2ncc3cccc(C(=O)NC4CCCNC4)c3n2)cc1` (stereo not drawn) [Compound 803, N-(piperidin-3-yl)-2-(4-sulfamoylphenylamino)quinazoline-8-carboxamide]: the IC50 in assay [1] was less than 5 µM. In addition, the EC50 in assay [2] was 5 to 10 µM; in assay [3], less than 5 µM.
With `CN(C)[C@@H]1CCN(C(=O)c2cccc3cnc(Nc4ccc(S(N)(=O)=O)cc4)nc23)C1` [Compound 804, (R)-4-(8-(3-(dimethylamino)pyrrolidine-1-carbonyl)quinazolin-2-ylamino)benzenesulfonamide], the IC50 in assay [1] was less than 5 µM. Besides, the results for the EC50 in assay [2] and in assay [3] were 5 to 10 µM and less than 5 µM, respectively.
On to `NS(=O)(=O)c1ccc(Nc2ncc3cccc(C(=O)NC4CCNCC4)c3n2)cc1` [Compound 805, N-(piperidin-4-yl)-2-(4-sulfamoylphenylamino)quinazoline-8-carboxamide], for which the IC50 in assay [1] was less than 5 µM. Moreover, the figures for the EC50 in assay [2] and in assay [3] were 5 to 10 µM and less than 5 µM, respectively.
As for `CN(C)[C@H]1CCN(C(=O)c2cccc3cnc(Nc4ccc(S(N)(=O)=O)cc4)nc23)C1` [Compound 806, (S)-4-(8-(3-(dimethylamino)pyrrolidine-1-carbonyl)quinazolin-2-ylamino)benzenesulfonamide], the IC50 in assay [1] is less than 5 µM. For the same molecule, the EC50 is 5 to 10 µM in assay [2] and less than 5 µM in assay [3].
Turning to `NS(=O)(=O)c1ccc(Nc2ncc3cccc(C(=O)N[C@H]4CN5CCC4CC5)c3n2)cc1` [Compound 807, (R)-N-(quinuclidin-3-yl)-2-(4-sulfamoylphenylamino)quinazoline-8-carboxamide], the IC50 in assay [1] lay in the range of 5 to 10 µM. Also, the EC50 in assay [2] and in assay [3] was 5 to 10 µM throughout.
Take `NS(=O)(=O)c1ccc(Nc2ncc3cccc(C(=O)N4CCNC(=O)C4)c3n2)cc1` [Compound 808, 4-(8-(3-oxopiperazine-1-carbonyl)quinazolin-2-ylamino)benzenesulfonamide]: in assay [1], the concentration for half-maximal inhibition (IC50) is less than 5 µM. Also, the EC50 in assay [2] was 5 to 10 µM; in assay [3], less than 5 µM.
In the case of `NS(=O)(=O)c1ccc(Nc2ncc3cccc(C(=O)N[C@@H]4CN5CCC4CC5)c3n2)cc1` [Compound 809, (S)-N-(quinuclidin-3-yl)-2-(4-sulfamoylphenylamino)quinazoline-8-carboxamide], in assay [1], the IC50 was less than 5 µM. Also, the EC50 in assay [2] is 5 to 10 µM; in assay [3], less than 5 µM.
On to `O=S(=O)(NCCN1CCCC1)c1cccc(Nc2ncc3cccc(OC4CCNCC4)c3n2)c1` [Compound 811, 3-(8-(piperidin-4-yloxy)quinazolin-2-ylamino)-N-(2-(pyrrolidin-1-yl)ethyl)benzenesulfonamide], for which, in assay [1], the IC50 is less than 5 µM. For the same molecule, the EC50 in assay [2] was 5 to 10 µM; in assay [3], less than 5 µM.
For the molecule `O=S(=O)(NC1CC1)c1cccc(Nc2ncc3cccc(OC4CCNCC4)c3n2)c1` [Compound 812, N-cyclopropyl-3-(8-(piperidin-4-yloxy)quinazolin-2-ylamino)benzenesulfonamide], the IC50 in assay [1] is less than 5 µM. In addition, the EC50 in assay [2] and in assay [3] was less than 5 µM each time.
As for `NS(=O)(=O)c1ccc(Nc2ncc3ccc(-c4ccc5cn[nH]c5c4)cc3n2)cc1` [Compound 813, 4-(7-(1H-indazol-6-yl)quinazolin-2-ylamino)benzenesulfonamide], the IC50 in assay [1] was less than 5 µM. Also, the EC50 in assay [2] and in assay [3] was less than 5 µM in each case.
Consider `COc1ncc(-c2ccc3cnc(Nc4ccc(S(N)(=O)=O)cc4)nc3c2)cn1` [Compound 814, 4-(7-(2-methoxypyrimidin-5-yl)quinazolin-2-ylamino)benzenesulfonamide], for which the concentration for half-maximal inhibition (IC50) in assay [1] is less than 5 µM. In addition, the EC50 in assay [2] and in assay [3] was less than 5 µM each time.
With `NS(=O)(=O)c1ccc(Nc2ncc3ccc(Nc4ccc5cn[nH]c5c4)cc3n2)cc1` [Compound 815, 4-(7-(1H-indazol-6-ylamino)quinazolin-2-ylamino)benzenesulfonamide], the IC50 in assay [1] was less than 5 µM. Further, the EC50 in assay [2] and in assay [3] was less than 5 µM throughout.
For the molecule `CCN1CCC(Oc2cccc3cnc(Nc4ccc(S(N)(=O)=O)cc4)nc23)CC1` [Compound 817, 4-(8-(1-ethylpiperidin-4-yloxy)quinazolin-2-ylamino)benzenesulfonamide], in assay [1], the IC50 is less than 5 µM. For the same molecule, the EC50 in assay [2] and in assay [3] was less than 5 µM in each case.

For the origin of these results see US7932262B2 (Novartis AG, priority 2006, dated 2011).
